From patent US12280068B1 (ZYLORION HEALTH INC., priority 2023, dated 2025)

Columns and labels:
[1] = target: T1, h5HT2A (Homo sapiens, UniProt P28223); assay: NanoBit βarrestin2 recruitment assay in CHO-K1 cells; format: cell-based
T1 construct: expressed in transfected cells; host or cells: CHO-K1 cells, transient transfection with Lipofectamine 3000
Excerpt: Cell Culture—CHO-K1 cells were transfected with either NanoBit™ smBIT h5HT2A plasmids and lgBiT βarrestin2 plasmid. When h5HT2A and βarrestin2 come into contact with one another the smBiT and lgBiT peptides complement each other to produce a complete NanoBit™ luciferase enzyme. When complete, the enzyme is able to catalyze the breakdown of the molecule coelenterazine to produce light. Emitted light levels are proportional to interactions between receptor and βarrestin2. Cells were maintained at 37° C., 5% CO2 in F-12 DMEM containing 1 mM L-glutamine, 10% FBS, and 1% Pen/Strep. For transfections, CHO-K1 cells were seeded in 6-well plates (500,000 cells per well) and incubated overnight in standard media as described above. Following overnight incubation, the cells were transfected with 1 μg of both the h5HT2A and the βarr2 NanoBiT plasmids. Transfections were carried out using Lipofectamine 3000 (Fisher Scientific, Ottawa, ON), according to the manufacturer's protocol in Opti-MEM media containing 1% FBS.
βarrestin2 assay—After seeding at 20,000 cells/well in flat bottom, white bottom, white wall, poly-D-lysine coated 96-well plates, transfected CHO-K1 cells were rinsed twice with Hank's buffered salt solution (HBSS), and 100 μL of HBSS was added to each of the wells. To this, 25 μL of Nano-Glo Live Cell Substrate was added (diluted 1/20 in the Nano-Glo LCS Dilution buffer, according to the manufacturer's protocol), and the plate was transferred to a Cytation5 plate reader. […] AUC data were then used for subsequent analyses.

[2] = target: T2, human 5HT2A (Homo sapiens, UniProt P28223); assay: AequoScreen Ca2+ release assay in CHO-K1 cells; format: cell-based; details: for 5-HT2A-dependent Ca^2+ release Efficacy (% ± S.E.M.): CHO-K1 cells expressing h5HT2A
T2 construct: expressed in transfected cells
Description: Cell Culture—AequoScreen™ Chinese hamster ovary (CHO)-K1 cells stably expressing human 5HT2A or 5HT2B (h5HT2A, h5HT2B) were maintained at 37° C., 5% CO2 in F-12 DMEM containing 1 mM L-glutamine, 10% FBS, and 1% Pen/Strep.
Ca^2+ Assay—Release of Ca^2+ into the cellular cytosol upon GPCR-dependent activation of Gaq/11 was determined using the AequoScreen™ assay in CHO-K1 cells stably expressing h5HT2A or h5HT2B. […] Upon binding Ca^2+, apoaequorin becomes activated to aequorin and converts coelenterazine to coelenteramide, CO2, and light. Light production is therefore directly proportional to the release of Ca^2+ from intracellular stores upon GPCR activation. Cells were seeded into flat bottom, white bottom, white wall, poly-D-lysine coated 96-well plates (20,000 cells/well) and incubated overnight in Opti-MEM containing 1% FBS at 37° C. and 5% CO2. Following this, Opti-MEM media was removed and replaced with fresh Opti-MEM containing 5 μM coelenterazine h (Promega, Madison, WI) and 1% FBS (final volume 50 μL) and cells were incubated at 25° C. for 4 h. After these 4 h, cells were treated with 50 μL 2× concentrated ligand solutions to achieve the concentrations indicated and centrifuged at 1,000×g for 1 min at room temperature. Chemiluminescence was then immediately measured on a Cytation5 plate reader (top read, gain 200, integration time 10,000 msec).

[3] = CHO-K1 cells, AUC of first 30 min

T1 sequence (P28223 whole entry): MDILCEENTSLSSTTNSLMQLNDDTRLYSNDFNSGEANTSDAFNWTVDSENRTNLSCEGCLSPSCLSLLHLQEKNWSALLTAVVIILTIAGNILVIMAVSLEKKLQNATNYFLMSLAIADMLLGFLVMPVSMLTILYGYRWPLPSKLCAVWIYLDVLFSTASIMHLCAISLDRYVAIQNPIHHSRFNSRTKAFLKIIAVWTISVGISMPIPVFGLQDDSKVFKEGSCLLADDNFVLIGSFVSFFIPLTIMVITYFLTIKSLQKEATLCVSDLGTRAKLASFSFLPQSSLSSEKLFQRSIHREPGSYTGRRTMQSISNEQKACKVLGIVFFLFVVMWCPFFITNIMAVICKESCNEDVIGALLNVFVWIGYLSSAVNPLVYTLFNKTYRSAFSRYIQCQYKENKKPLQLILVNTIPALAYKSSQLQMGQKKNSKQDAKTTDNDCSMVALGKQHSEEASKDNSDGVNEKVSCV
T1 sequence (P32121 whole entry, further chain): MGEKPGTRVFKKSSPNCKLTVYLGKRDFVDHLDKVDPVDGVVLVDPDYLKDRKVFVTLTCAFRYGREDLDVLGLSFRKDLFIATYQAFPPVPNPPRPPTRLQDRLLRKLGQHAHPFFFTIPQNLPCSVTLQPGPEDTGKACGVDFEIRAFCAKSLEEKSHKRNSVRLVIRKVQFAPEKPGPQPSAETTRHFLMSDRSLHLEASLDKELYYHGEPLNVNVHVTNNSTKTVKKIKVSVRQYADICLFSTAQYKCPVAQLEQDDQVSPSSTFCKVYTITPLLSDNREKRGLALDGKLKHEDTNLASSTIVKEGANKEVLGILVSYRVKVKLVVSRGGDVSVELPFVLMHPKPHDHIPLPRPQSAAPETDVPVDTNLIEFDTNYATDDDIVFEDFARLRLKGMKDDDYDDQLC
T2 sequence (P28223 whole entry): as the sequence (P28223 whole entry) above

| Structure (SMILES) | 5-HT2A-dependent βarrestin2 recruitment Efficacy (% ± S.E.M.) [1, 3] | 5-HT2A-dependent Ca^2+ release Efficacy (% ± S.E.M.) [2] | 5-HT2A βarrestin2 recruitment activity (in words) [1] | 5-HT2A Ca^2+ release activity (in words) [2] | 5-HT2A-dependent βarrestin2 recruitment Potency (nM) [1, 3] |
| --- | --- | --- | --- | --- | --- |
| CCN(CC)C(=O)[C@@H]1C=C2c3cccc4[nH]cc(c34)C[C@H]2N(C)C1 [LSD, lysergic acid diethylamide] | 83 ± 4.7% | 82 ± 4.7% | – | – | – |
| CN(C)CCc1c[nH]c2cccc(O)c12 [Psilocin] | 45 ± 15% | 69 ± 12% | intermediate potency | high potency | – |
| CN(C)CCc1c[nH]c2cccc(OP(=O)(O)O)c12 [Psilocybin] | 3.7 ± 22% | 69 ± 15% | – | – | not converged |
| NCCc1c[nH]c2ccc(O)cc12 [Serotonin (5HT), 5-hydroxytryptamine] | 37 ± 16% | – | – | – | – |
